Here are results for one compound from patent US20250002470A1, “NITROGEN-CONTAINING COMPOUND, PREPARATION METHOD THEREFOR AND APPLICATION THEREOF” (ZHEJIANG AIXPLORER BIOTECH CO., LTD., priority 2021, published 2025).

Series [1] concerns the target T1, NLRP3 (Homo sapiens, UniProt Q96P20).
T1 construct: endogenous in cells; host or cells: THP-1 cells (IFN-γ differentiated, LPS primed, ATP stimulated)
Nature of the series: IL-1β (interleukin-1β) secretion in IFN-γ-differentiated, LPS/ATP-stimulated THP-1 cells (half inhibition rate of NLRP3). The format is cell-based. Particulars: IFN-γ 25 ng/mL, LPS 50 ng/mL, ATP 5 mM. Put shortly: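 IFN-γ-differentiated THP-1 cells primed with LPS (final 50 ng/mL, 4 h, serum-free), then given compound for 1 h and ATP (final 5 mM) for 1 h at 37 °C. Secreted IL-1β in supernatant quantified by sandwich ELISA (mAb Mt175 capture, biotinylated mAb7P10 detection, streptavidin-HRP/TMB, 450 nm).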

Series [2] in a line: Safety investigation, oral administration to SD rats for 14 consecutive days. Particulars: 14 days.
The subject of series [3] is DSS-induced acute enteritis mouse model. Nature of the series: DSS-induced acute enteritis mouse model (body weight, DAI score, colon length). In kind it is in vivo, C57BL/6 mice. The procedure:
(§1) Grouping and modeling: One day before the start of the experiment, all C57BL/6 mice were ear-labeled and recorded, and the animals with appropriate weight and normal status were selected for grouping (Sham group, vehicle group and embodiment 33 group). 10 animals per group; 3.5% dextran sulfate sodium salt (DSS, MP, molecular weight 36000-50000) prepared with sterile water is loaded into the drinking bottle in the vehicle and the 33 testing groups of rearing cages in the embodiment (100 mL per cage, replace the 3.5% DSS solution after 2-3 days with freshly prepared solution), and the animals in the vehicle and the 33 testing groups of the embodiment are free to drink for 10 consecutive days. The Sham group drank the normal water not containing DSS. Embodiment 33 compound is administered orally BID.
1) Body Weight Change (%)=BWi/BW0×100%, BWi is the average body weight of mice in the group on a given day, BW0 is the average body weight of mice before the start of treatment.
2) DAI score: The Disease Activity Index (DAI) scoring criteria are as follows:
3) Colon length: After the last dose, all animals were euthanized with CO2 and dissected. The entire colon (anus-cecum section) was isolated, moistened with ice-cold saline, smoothed and laid flat. On the dissecting board, without applying external force to stretch, use a digital vernier caliper to measure the length of the colon and record it, and take photos for retention.

For series [4], the system named is IL-1β. Nature of the series: Inflammatory factor IL-1β in serum and colon, DSS-induced acute enteritis mouse model. In kind it is in vivo, C57BL/6 mice. The conditions noted are these: 50 mpk, BID. As to the method:
as §1
4) Detection of inflammatory factors: Blood was collected from all animals under their jaws, and serum was separated; serum and colon tissue IL-10 and IL-18 cytokines were detected according to the detection method in the Effect Embodiment 4.

[5] abbreviates: 50 mpk P.O Bid, 3.5% DSS, day 11, n = 10.

One may read the IC50 as the concentration that gives 50% inhibition.

Marks after values point to notes of the source that are not given here.

T1 sequence (Q96P20 whole entry): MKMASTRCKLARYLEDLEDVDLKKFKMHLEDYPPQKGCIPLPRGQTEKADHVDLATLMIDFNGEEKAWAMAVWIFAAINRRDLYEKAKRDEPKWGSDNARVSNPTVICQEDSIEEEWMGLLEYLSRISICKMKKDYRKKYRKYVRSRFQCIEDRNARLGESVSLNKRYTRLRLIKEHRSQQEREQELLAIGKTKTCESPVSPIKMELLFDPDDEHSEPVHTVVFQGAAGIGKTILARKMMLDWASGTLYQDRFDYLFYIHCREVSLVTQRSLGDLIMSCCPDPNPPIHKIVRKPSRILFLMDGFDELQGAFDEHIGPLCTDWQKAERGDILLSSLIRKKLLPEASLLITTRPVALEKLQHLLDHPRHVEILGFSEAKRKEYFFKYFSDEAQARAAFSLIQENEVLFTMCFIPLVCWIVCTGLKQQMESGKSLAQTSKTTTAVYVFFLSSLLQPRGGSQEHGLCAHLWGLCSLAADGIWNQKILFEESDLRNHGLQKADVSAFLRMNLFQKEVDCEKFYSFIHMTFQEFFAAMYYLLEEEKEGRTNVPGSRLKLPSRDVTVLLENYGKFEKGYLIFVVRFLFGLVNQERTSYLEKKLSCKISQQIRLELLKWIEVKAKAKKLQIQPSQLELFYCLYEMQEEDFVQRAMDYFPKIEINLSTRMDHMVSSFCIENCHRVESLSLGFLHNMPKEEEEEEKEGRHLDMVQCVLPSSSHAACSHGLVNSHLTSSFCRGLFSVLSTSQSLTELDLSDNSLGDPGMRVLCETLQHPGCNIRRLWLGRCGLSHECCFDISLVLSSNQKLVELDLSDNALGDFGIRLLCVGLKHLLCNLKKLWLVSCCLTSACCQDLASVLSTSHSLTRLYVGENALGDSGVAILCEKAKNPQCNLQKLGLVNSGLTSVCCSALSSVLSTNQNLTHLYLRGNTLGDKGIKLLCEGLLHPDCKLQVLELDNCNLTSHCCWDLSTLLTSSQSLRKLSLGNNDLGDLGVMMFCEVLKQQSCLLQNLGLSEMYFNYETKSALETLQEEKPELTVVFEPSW

`Cc1nc(N[C@@H]2CCCC[C@H]2O)nnc1-c1ccc(C(F)(F)F)cc1O` [Embodiment 33] yielded a concentration for half-maximal inhibition (IC50) in series [1] of 5.8 nM. In addition, the “dose without any toxic effects” value in series [2] is not above 2000 mg/kg. Further, in series [3] (50mpk P.O Bid), the “curative effect on animals with DSS-induced acute enteritis (IBD)” value was “significant curative effect”. Also, in series [3] (setting [5]), the “Day 11 weight change (%)” value is 88.09%. Also, the “Rate of body weight loss (%)” value in series [3] (setting [5]) amounted to 11.91%**. Besides, the DAI score in series [3] (50 mpk P.O Bid, Day 3) came to 0.00; in series [3] (50 mpk P.O Bid, Day 5), 2.60 ± 0.45; in series [3] (50 mpk P.O Bid, Day 7) it was 4.40 ± 0.6; in series [3] (50 mpk P.O Bid, Day 9), 6.20 ± 0.68; in series [3] (50 mpk P.O Bid, Day 11) it was 7.80 ± 0.63. In series [3] (50 mpk P.O Bid, after the last dose, n = 10), the Colon length is reported as 58.27 ± 1.48 mm. The compound further came in with an IL-1β in serum in series [4] of 290.3 ± 30.65. Besides, in series [4], the “IL-1β in the colon” value is 6.018 ± 0.9675.
